One compound from publication PMC8320979, “Probing the role of the residues in the active site of the transaminase from Thermobaculum terrenum” (PLoS ONE, 2021) can be followed below.

Each structure is given as a SMILES string.

Common to all, as to assay: pre-steady-state half-reaction of the PLP form, aldimine decrease at […] nm
Holding throughout (format): biochemical

Assay [1] deals with T1, TaTT (transaminase from Thermobaculum terrenum) (Thermobaculum terrenum, UniProt D1CCW1, G40V/R42S/Y100F/S114R).
T1 construct: gene ilvE; N-terminal His6TEV-tag, expressed in E. coli BL21(DE3)pLys; tag cut by TEV for crystals (309 visible residues, 5 N-terminal and 3 C-terminal residues invisible); functional dimer
T1 sequence (D1CCW1 entry or part of it G40V/R42S/Y100F/S114R): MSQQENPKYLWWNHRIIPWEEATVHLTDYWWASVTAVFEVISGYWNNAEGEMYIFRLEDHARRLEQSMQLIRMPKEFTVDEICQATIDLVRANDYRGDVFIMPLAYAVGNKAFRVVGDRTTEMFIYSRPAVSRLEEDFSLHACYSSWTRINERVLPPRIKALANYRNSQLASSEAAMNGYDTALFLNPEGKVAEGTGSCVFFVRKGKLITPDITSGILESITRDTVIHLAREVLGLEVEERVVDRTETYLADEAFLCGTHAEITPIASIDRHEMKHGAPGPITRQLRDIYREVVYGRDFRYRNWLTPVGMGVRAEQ
The note with it: mP3O1; 50 mM CHES pH 9.0, 40 °C; no amino acceptor; constant from kobs vs. substrate; read-out: pH 9.0, CHES buffer, 40°C / KD, / mM.

Assay [2] addresses T2, TaTT (transaminase from Thermobaculum terrenum) (Thermobaculum terrenum, UniProt D1CCW1, S114R).
T2 construct: gene ilvE; N-terminal His6TEV-tag, expressed in E. coli BL21(DE3)pLys; tag cut by TEV for crystals (309 visible residues, 5 N-terminal and 3 C-terminal residues invisible); functional dimer
The settings on record: mO1; 50 mM CHES pH 9.0, 40 °C; no amino acceptor; constant from kobs vs. substrate; read-out: pH 9.0, CHES buffer, 40°C / KD, / mM.

The target in assay [3] is T3, TaTT (transaminase from Thermobaculum terrenum) (Thermobaculum terrenum, UniProt D1CCW1, W31H/F38Y/G40V/R42S/Y100F).
T3 construct: gene ilvE; N-terminal His6TEV-tag, expressed in E. coli BL21(DE3)pLys; tag cut by TEV for crystals (309 visible residues, 5 N-terminal and 3 C-terminal residues invisible); functional dimer
T3 sequence (D1CCW1 entry or part of it W31H/F38Y/G40V/R42S/Y100F): as the sequence (D1CCW1 entry or part of it G40V/R42S/Y100F/S114R) above, with W31H, F38Y, R114S counted along it
The settings on record: mP3O7; 50 mM Tris-HCl pH 8.0, 30 °C; no amino acceptor; constant from kobs vs. substrate; read-out: pH 8.0, Tris-HCl buffer, 30°C / KD, / mM.

Assay [4] has as its target T4, TaTT (transaminase from Thermobaculum terrenum) (Thermobaculum terrenum, UniProt D1CCW1, G40V/R42S/Y100F).
T4 construct: gene ilvE; N-terminal His6TEV-tag, expressed in E. coli BL21(DE3)pLys; tag cut by TEV for crystals (309 visible residues, 5 N-terminal and 3 C-terminal residues invisible); functional dimer
The note with it: mP3; 50 mM CHES pH 9.0, 40 °C; no amino acceptor; constant from kobs vs. substrate; read-out: pH 9.0, CHES buffer, 40°C / KD, / mM.

For assay [5], the target named is T5, TaTT (transaminase from Thermobaculum terrenum) (Thermobaculum terrenum, UniProt D1CCW1).
T5 construct: gene ilvE; N-terminal His6TEV-tag, expressed in E. coli BL21(DE3)pLys; tag cut by TEV for crystals (309 visible residues, 5 N-terminal and 3 C-terminal residues invisible); functional dimer
T5 sequence (D1CCW1 entry or part of it): as the sequence (D1CCW1 entry or part of it G40V/R42S/Y100F/S114R) above, with V40G, S42R, F100Y, R114S counted along it
The settings on record: 50 mM CHES pH 9.0, 40 °C; no amino acceptor; constant from kobs vs. substrate; read-out: pH 9.0, CHES buffer, 40°C / KD, / mM.

In assay [6] the target is T6, TaTT (transaminase from Thermobaculum terrenum) (Thermobaculum terrenum, UniProt D1CCW1, G40V/Y100F).
T6 construct: gene ilvE; N-terminal His6TEV-tag, expressed in E. coli BL21(DE3)pLys; tag cut by TEV for crystals (309 visible residues, 5 N-terminal and 3 C-terminal residues invisible); functional dimer
T6 sequence (D1CCW1 entry or part of it G40V/Y100F): as the sequence (D1CCW1 entry or part of it G40V/R42S/Y100F/S114R) above, with S42R, R114S counted along it
The note with it: mP2; 50 mM CHES pH 9.0, 40 °C; no amino acceptor; constant from kobs vs. substrate; read-out: pH 9.0, CHES buffer, 40°C / KD, / mM.

T2 sequence (D1CCW1 entry or part of it S114R): as the sequence (D1CCW1 entry or part of it G40V/R42S/Y100F/S114R) above, with V40G, S42R, F100Y counted along it
T4 sequence (D1CCW1 entry or part of it G40V/R42S/Y100F): as the sequence (D1CCW1 entry or part of it G40V/R42S/Y100F/S114R) above, with R114S counted along it

With `C[C@@H](N)c1ccccc1` [R-PEA, (R)-(+)-1-phenylethylamine], the Kd in assay [1] came out at 1.5 ± 0.5 mM; in assay [2], 3.3 ± 1.2 mM; in assay [3], 44 ± 8 mM; in assay [4] it was 2.6 ± 0.4 mM; in assay [5], 81 ± 8 mM; in assay [6] it was 13 ± 2 mM.
